Experimental data reported in ChEMBL document CHEMBL1137903 (Bioorg Med Chem Lett, 2004).

How the values were obtained:
[1] = target: T1, Melatonin receptor type 1A (Homo sapiens, UniProt P48039); test: Inhibition of 2-[125I]iodomelatonin binding to membrane preparations of NIH3T3 cells stably expressing human Melatonin receptor type 1A; format: cell membranes
[2] = target: T2, Melatonin receptor type 1B (Homo sapiens, UniProt P49286); test: Inhibition of 2-[125I]iodomelatonin binding to membrane preparations of NIH3T3 cells stably expressing human Melatonin receptor type 1B; format: cell membranes
T2 sequence (P49286 whole entry): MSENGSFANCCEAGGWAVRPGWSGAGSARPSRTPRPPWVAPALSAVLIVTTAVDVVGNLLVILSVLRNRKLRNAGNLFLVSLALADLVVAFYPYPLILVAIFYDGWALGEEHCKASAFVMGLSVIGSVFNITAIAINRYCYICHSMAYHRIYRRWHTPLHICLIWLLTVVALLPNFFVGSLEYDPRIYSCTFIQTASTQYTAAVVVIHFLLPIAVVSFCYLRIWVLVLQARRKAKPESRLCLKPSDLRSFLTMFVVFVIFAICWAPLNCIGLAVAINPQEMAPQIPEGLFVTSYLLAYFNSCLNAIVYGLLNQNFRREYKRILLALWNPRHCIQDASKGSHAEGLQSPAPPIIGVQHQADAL

[3] = Bioavailability in rat (dose 1 mg/kg p.o.); format: ADME, organism-based; conditions: in vivo, po
[4] = Clearance in rats after the administration of 1 mg/kg i.v. dose; format: ADME, organism-based; design: dose 1 mg/kg, route intravenous; conditions: rat, in vivo, iv
[5] = target: T1, Melatonin receptor type 1A; test: Agonist activity towards human Melatonin receptor type 1A was determined by its ability to inhibit forskolin stimulated cAMP accumulation; format: functional
[6] = Volume of distribution in rats after the administration of 1 mg/kg i.v. dose; format: ADME, organism-based; design: dose 1 mg/kg, route intravenous; conditions: rat, in vivo, iv
[7] = Half-life in rats after the administration of 1 mg/kg i.v. dose; format: ADME, organism-based; design: dose 1 mg/kg, route intravenous; conditions: rat, in vivo, iv
[8] = target: T2, Melatonin receptor type 1B; test: Agonist activity towards human Melatonin receptor type 1B was determined by its ability to inhibit forskolin stimulated cAMP accumulation; format: functional
[9] = target: T1, Melatonin receptor type 1A; test: Intrinsic activity towards human Melatonin receptor type 1A relative to melatonin

T1 sequence (P48039 whole entry): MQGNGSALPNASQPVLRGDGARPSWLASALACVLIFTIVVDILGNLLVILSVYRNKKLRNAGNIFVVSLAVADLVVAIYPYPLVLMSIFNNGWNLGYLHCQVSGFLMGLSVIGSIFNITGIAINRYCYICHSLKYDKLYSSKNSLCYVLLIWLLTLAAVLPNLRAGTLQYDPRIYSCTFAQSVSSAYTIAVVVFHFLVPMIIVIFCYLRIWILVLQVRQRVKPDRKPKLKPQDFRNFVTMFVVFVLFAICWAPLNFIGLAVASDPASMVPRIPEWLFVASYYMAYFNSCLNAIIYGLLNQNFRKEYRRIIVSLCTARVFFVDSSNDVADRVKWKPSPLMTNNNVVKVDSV

Structure (SMILES)	Ki [1] [nM]	Ki [2] [nM]	further results
CCNC(=O)NCCCc1cccc2oc(CCCCc3ccccc3)cc12	21	52	–
CC(C)C(=O)NC[C@@H]1CC1c1cccc2oc(CCCCc3ccccc3)cc12 (some centres undefined)	23	54	–
CC(=O)N[C@H]1CCN(c2cccc3oc(CCCCc4ccccc4)cc23)C1	22	14	–
CCC(=O)NC[C@@H]1CC1c1cccc2oc(CCCCc3ccccc3)cc12 (some centres undefined)	2.1	2.8	–
O=C(NC[C@@H]1CC1c1cccc2oc(CCCCc3ccccc3)cc12)C1CC1 (some centres undefined)	16	33	–
O=C(NCCCc1cccc2oc(CCCCc3ccccc3)cc12)C1CC1	6	95	–
CCC(=O)NCCCc1cccc2oc(CCCCc3ccccc3)cc12	7.5	60	–
CC(C)C(=O)N[C@H]1CCN(c2cccc3oc(CCCCc4ccccc4)cc23)C1	105	162	–
CCNC(=O)NC[C@@H]1C[C@H]1c1cccc2oc(CCCCc3ccccc3)cc12	33	90	–
O=C(N[C@H]1CCN(c2cccc3oc(CCCCc4ccccc4)cc23)C1)C1CC1	42	152	–
CC(=O)NCCCc1cccc2oc(CCCCc3ccccc3)cc12	19	127	–
COc1ccc2[nH]cc(CCNC(C)=O)c2c1 [MELATONIN]	–	–	bioavailability [3]: 24%
CC(C)C(=O)NCCCc1cccc2oc(CCCCc3ccccc3)cc12	3.7	83	–
CCCC(=O)NCCCc1cccc2oc(CCCCc3ccccc3)cc12	16	82	–
CCCC(=O)N[C@H]1CCN(c2cccc3oc(CCCCc4ccccc4)cc23)C1	11	7.2	–
CC(=O)NC[C@@H]1CC1c1cccc2oc(CCCCc3ccccc3)cc12 (some centres undefined)	2.6	10	clearance [4]: 27.5 mL/min/kg; EC50 [5]: 0.6 nM; bioavailability [3]: 90%; Vd [6]: 0.557 L/kg; half-life [7]: 228 min; EC50 [8]: 21 nM; Activity [9]: 0.97
CCC(=O)N[C@H]1CCN(c2cccc3oc(CCCCc4ccccc4)cc23)C1	2.4	6	–
CCNC(=O)N[C@H]1CCN(c2cccc3oc(CCCCc4ccccc4)cc23)C1	39	98	–
CCCC(=O)NC[C@@H]1CC1c1cccc2oc(CCCCc3ccccc3)cc12 (some centres undefined)	10	10	–
